Measured values as given in ChEMBL document CHEMBL1136347, “Synthesis of 17beta-estradiol platinum(II) complexes: biological evaluation on breast cancer cell lines” (Bioorg Med Chem Lett, 2003).

Key:
Assay type in all cases: functional, cell-based
[1] = test system: ZR-75-1; experiment: In vitro inhibition of estrogen receptor positive human breast cancer ZR-75-1 cell proliferation
[2] = test system: Hs-578T; experiment: In vitro inhibition of estrogen receptor negative human breast cancer Hs 578.T cell proliferation
[3] = test system: MCF7; experiment: In vitro inhibition of estrogen receptor positive human breast cancer MCF-7 cell proliferation
[4] = test system: MDA-MB-231; experiment: In vitro inhibition of estrogen receptor negative human breast cancer MDA-MB-231 cell proliferation

Row | Substance | IC50 [1] [µM] | IC50 [2] [µM] | IC50 [3] [µM] | IC50 [4] [µM]
1 | Cisplatin complex [listing 1 of 8 here] | 2.5 | 3.5 | 4 | 4.7
2 | Cisplatin complex [listing 2 of 8 here] | 4.2 | 2.7 | 5.8 | 8.6
3 | Cisplatin complex [listing 3 of 8 here] | 31.5 | > 40 | > 40 | > 40
4 | Cisplatin complex [listing 4 of 8 here] | 14 | 17.3 |  | 12.7
5 | Cisplatin complex [listing 5 of 8 here] | 16.4 | 28 | 31.5 | 18.5
6 | Cisplatin complex [listing 6 of 8 here] | 5 | 4.1 | 4.3 | 4.8
7 | Cisplatin complex [listing 7 of 8 here] | 15.8 | 22.9 | 20 | 
8 | Cisplatin complex [listing 8 of 8 here] | 9.3 | 12.4 | 13.4 | 9.2
9 | CISPLATIN | 9.3 | 9.1 | 16.7 | 12.7
